1 compound from article PMC9326368, “A Novel PARP Inhibitor YHP-836 For the Treatment of BRCA-Deficiency Cancers” (Frontiers in Pharmacology, 2022) can be followed below.

The target in one test is PARP1 (Homo sapiens, UniProt P09874). The experiment in a line: PARP1 enzymatic assay on histone-coated plate with NAD+, PAR product detection. In kind it is biochemical.
A further test deals with PARP2 (Homo sapiens, UniProt Q9UGN5). Description: PARP2 enzymatic assay on histone-coated plate with NAD+, PAR product detection. Type of test: biochemical.
Chain of PARP2 (Q9UGN5 whole entry): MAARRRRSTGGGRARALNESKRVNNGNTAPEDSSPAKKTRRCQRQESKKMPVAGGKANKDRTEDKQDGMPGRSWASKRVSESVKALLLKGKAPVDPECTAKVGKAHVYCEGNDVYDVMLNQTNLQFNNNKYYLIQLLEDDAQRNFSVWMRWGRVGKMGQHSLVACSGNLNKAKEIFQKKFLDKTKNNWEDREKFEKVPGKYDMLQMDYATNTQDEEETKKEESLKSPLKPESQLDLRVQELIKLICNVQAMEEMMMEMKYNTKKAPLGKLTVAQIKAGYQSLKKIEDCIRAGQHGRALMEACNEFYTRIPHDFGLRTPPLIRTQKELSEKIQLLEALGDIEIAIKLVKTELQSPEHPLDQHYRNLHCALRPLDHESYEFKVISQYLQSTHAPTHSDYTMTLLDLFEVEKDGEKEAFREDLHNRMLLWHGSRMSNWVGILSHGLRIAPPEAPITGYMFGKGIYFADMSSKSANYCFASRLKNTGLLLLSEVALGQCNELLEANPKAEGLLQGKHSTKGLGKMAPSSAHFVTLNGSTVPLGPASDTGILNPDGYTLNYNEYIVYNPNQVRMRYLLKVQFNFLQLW

Chain of PARP1 (P09874 2-1014): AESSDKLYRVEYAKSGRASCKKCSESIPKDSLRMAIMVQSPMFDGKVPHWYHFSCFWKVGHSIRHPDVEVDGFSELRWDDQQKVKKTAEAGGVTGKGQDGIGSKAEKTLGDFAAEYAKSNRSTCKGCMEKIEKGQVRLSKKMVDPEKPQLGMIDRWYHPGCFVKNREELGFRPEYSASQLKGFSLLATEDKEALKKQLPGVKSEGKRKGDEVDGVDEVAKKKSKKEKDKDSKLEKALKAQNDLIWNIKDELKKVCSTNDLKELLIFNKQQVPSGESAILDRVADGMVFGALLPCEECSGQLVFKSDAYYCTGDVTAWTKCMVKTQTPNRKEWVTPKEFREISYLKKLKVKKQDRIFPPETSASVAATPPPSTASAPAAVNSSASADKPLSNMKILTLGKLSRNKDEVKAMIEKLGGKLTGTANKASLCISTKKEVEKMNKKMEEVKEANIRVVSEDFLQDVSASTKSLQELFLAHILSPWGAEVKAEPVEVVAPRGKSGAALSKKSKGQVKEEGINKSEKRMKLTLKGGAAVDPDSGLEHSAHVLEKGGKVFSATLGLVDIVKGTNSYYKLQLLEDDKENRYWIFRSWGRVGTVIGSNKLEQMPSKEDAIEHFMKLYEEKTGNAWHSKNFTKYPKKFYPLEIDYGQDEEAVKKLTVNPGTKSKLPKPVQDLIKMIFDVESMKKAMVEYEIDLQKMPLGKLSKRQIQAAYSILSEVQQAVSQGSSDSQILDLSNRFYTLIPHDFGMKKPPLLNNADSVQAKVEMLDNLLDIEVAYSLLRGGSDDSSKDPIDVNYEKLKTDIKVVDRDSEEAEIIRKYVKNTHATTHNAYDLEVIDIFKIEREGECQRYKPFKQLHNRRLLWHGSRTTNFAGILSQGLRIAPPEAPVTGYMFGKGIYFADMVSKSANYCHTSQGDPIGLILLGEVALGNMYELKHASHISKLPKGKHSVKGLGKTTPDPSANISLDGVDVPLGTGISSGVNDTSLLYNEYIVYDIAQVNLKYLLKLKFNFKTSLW

One may read the IC50 as the concentration needed to halve the response being measured. For the compound `O=C(c1cc(Cn2c(=O)[nH]c(=O)c3ccccc32)ccc1F)N1CCN(CC(F)(F)F)CC1` [YHP-836], the figures for the IC50 against PARP1 and against PARP2 were 6.33 nM and 3.62 nM, respectively.
